Data published in patent US9274101B2 (BIOLOG, Inc., priority 2001, dated 2016).

Legend:
[1] = system: HL-60 cells; assay: Effect of 10 mM citric acid on HL-60 energy utilization; assay type: cell-based, human; conditions: negative control without energy sources and without citric acid
[2] = system: Undifferentiated HL-60 cells; assay: Energy use by undifferentiated HL-60 cells; assay type: cell-based, human; conditions: Homo sapiens, HL-60, 24 h, read-out: Energy Use by Undifferentiated HL-60 Cells
[3] = system: HL-60 cells; assay: Effect of 1 mM chloramphenicol on HL-60 energy utilization; assay type: cell-based, human; conditions: negative control without chloramphenicol
Outline: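 Washed HL-60 cells (5×10^4/well) in DME-R with chloramphenicol (1 mM final) were exposed to test energy sources at 0.033 to 20 mM final for 24 h at 37° C, 5% CO2. MTS/MPMS reagent was then added and read 24 h later at 490 nm (650 nm reference). Cell-free plate OD was subtracted, and values were given as % of the negative control without chloramphenicol.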

[4] = system: ten strains of E. coli; assay type: cell-based, Escherichia coli; further: key: +: indicates that the organism tested was capable of utilizing the carbon source listed; −: indicates that the organism tested was not capable of utilizing the carbon source listed; indicates weak positive reactions
[5] = system: HepG2 cells; assay: HepG2 cells on flat bottom plastic wells, energy sources at a range of concentrations; assay type: cell-based, human; conditions: Homo sapiens, HepG2, 72 h, read-out: HepG2 Cells Responses After 72 hours in Culture and a 4 hour Color Development Period
Outline: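 HepG2 cells plated overnight at 4×10^4 cells/cm^2 in glucose-, glutamine- and pyruvate-free DME with 10% HI FBS, then exposed to each energy source at 0.033 to 20 mM final for 48 to 72 h at 37° C, 5% CO2. MTS/PMS colour read at 490 nm (reference 650 nm) after 4-24 h; cell-free plate OD subtracted, data normalised to % negative control (water, no energy source).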

Q: Which results are given for `Cc1cn([C@H]2C[C@H](O)[C@@H](CO)O2)c(=O)[nH]c1=O` [Thymidine]?
A: Effect of 10 mM Citric Acid on HL-60 Energy Utilization ([1]; energy source 0.03 mM with 10 mM citric acid): 5.2 % of negative control; Effect of 10 mM Citric Acid on HL-60 Energy Utilization ([1]; energy source 0.10 mM with 10 mM citric acid): 18.9 % of negative control; Effect of 10 mM Citric Acid on HL-60 Energy Utilization ([1]; energy source 0.33 mM with 10 mM citric acid): 12.4 % of negative control; Effect of 10 mM Citric Acid on HL-60 Energy Utilization ([1]; energy source 1.00 mM with 10 mM citric acid): 22.1 % of negative control; Effect of 10 mM Citric Acid on HL-60 Energy Utilization ([1]; energy source 3.3 mM with 10 mM citric acid): 27.9 % of negative control; Effect of 10 mM Citric Acid on HL-60 Energy Utilization ([1]; energy source 10 mM with 10 mM citric acid): 31.0 % of negative control; Effect of 10 mM Citric Acid on HL-60 Energy Utilization ([1]; energy source 15 mM with 10 mM citric acid): 20.9 % of negative control; Effect of 10 mM Citric Acid on HL-60 Energy Utilization ([1]; energy source 20 mM with 10 mM citric acid): 64.8 % of negative control; activity at 30 µM ([2]; Conc. 0.03 mM): 84.1%; activity at 100 µM ([2]; Conc. 0.10 mM): 106%; activity at 330 µM ([2]; Conc. 0.33 mM): 101%; activity at 1000 µM ([2]; Conc. 1.00 mM): 90.9%; activity at 3300 µM ([2]; Conc. 3.3 mM): 111%; activity at 10000 µM ([2]; Conc. 10 mM): 80.3%; activity at 15000 µM ([2]; Conc. 15 mM): 81.3%; activity at 20000 µM ([2]; Conc. 20 mM): 52.3%; Effect of 1 mM chloramphenicol on HL-60 Energy Utilization ([3]; energy source 0.03 mM with 1 mM chloramphenicol): 8.4 % of negative control; Effect of 1 mM chloramphenicol on HL-60 Energy Utilization ([3]; energy source 0.10 mM with 1 mM chloramphenicol): 5.8 % of negative control; Effect of 1 mM chloramphenicol on HL-60 Energy Utilization ([3]; energy source 0.33 mM with 1 mM chloramphenicol): 6.4 % of negative control; Effect of 1 mM chloramphenicol on HL-60 Energy Utilization ([3]; energy source 1.00 mM with 1 mM chloramphenicol): 3.1 % of negative control; Effect of 1 mM chloramphenicol on HL-60 Energy Utilization ([3]; energy source 3.3 mM with 1 mM chloramphenicol): 8.8 % of negative control; Effect of 1 mM chloramphenicol on HL-60 Energy Utilization ([3]; energy source 10 mM with 1 mM chloramphenicol): 5.8 % of negative control; Effect of 1 mM chloramphenicol on HL-60 Energy Utilization ([3]; energy source 15 mM with 1 mM chloramphenicol): 6.0 % of negative control; Effect of 1 mM chloramphenicol on HL-60 Energy Utilization ([3]; energy source 20 mM with 1 mM chloramphenicol): 7.3 % of negative control; carbon source utilization [4]: +; activity at 30 µM ([5]; Conc. 0.03 mM): 115%; activity at 100 µM ([5]; Conc. 0.10 mM): 158%; activity at 330 µM ([5]; Conc. 0.33 mM): 180%; activity at 1000 µM ([5]; Conc. 1.00 mM): 150%; activity at 3300 µM ([5]; Conc. 3.3 mM): 135%; activity at 10000 µM ([5]; Conc. 10 mM): 114%; activity at 15000 µM ([5]; Conc. 15 mM): 101%; activity at 20000 µM ([5]; Conc. 20 mM): 134%
